Laboratory results published in patent US20070049593A1 (priority 2004, published 2007).
pIC50: −log10 of the molar value. Where a name gives a salt, the structure may show the parent alone. Read-outs that look alike come from different tables or passages of the source.

Target: T1, HCV polymerase (Hepatitis C virus genotype 1b, UniProt P26663)
T1 construct: a region encoding NS5B (J Virol 1991 March, 65(3), 1105-13, 544 amino acids after deletion of 47 amino acids on the C-terminal); 6xHis (C); made in house; host or cells: Escherichia coli
T1 sequence (P26663 2420-2963): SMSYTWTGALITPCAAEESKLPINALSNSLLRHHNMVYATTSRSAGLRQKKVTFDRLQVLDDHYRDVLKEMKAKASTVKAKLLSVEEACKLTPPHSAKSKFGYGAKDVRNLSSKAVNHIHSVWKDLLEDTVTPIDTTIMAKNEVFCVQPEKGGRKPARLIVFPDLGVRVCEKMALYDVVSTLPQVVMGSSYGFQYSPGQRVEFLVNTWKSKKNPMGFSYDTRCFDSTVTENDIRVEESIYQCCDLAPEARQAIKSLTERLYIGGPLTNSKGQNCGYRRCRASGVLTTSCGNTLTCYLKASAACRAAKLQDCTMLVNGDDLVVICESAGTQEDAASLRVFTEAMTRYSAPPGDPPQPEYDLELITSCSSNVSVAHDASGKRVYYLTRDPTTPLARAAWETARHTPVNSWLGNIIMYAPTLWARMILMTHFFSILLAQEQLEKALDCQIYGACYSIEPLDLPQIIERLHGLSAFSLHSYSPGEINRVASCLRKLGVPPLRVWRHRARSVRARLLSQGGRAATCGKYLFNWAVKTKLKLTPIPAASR
Assay: biochemical
Parameters: species or system HCV BK strain
Method in brief: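 Recombinant HCV BK-strain NS5B (C-terminal 47 aa deleted, His6-tagged, E. coli), 0.5 μg/ml, run with 5 μg/ml in vitro-transcribed RNA template (polyU/3′X), ATP/GTP/CTP 50 μM, UTP 2 μM plus [3H]UTP, pH 7.5, 25° C, 90 min. TCA-precipitated RNA counted by scintillation; IC50 from activity with vs without compound.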

## CCN1CCCC(CCN2CCn3c(c(C4CCCCC4)c4ccc(C(=O)O)cc43)-c3ccc(Cl)cc32)C1 (centres unmarked) [Example 1-261, 3-chloro-13-cyclohexyl-5-[2-(1-ethylpiperidin-3-yl)ethyl]-6,7-dihydro-5H-benzo[5,6][1,4]diazepino[7,1-a]indole-10-carboxylic acid dihydrochloride]
  pIC50: > 7.00

## CN1CCC(OCCN2CCn3c(c(C4CCCCC4)c4ccc(C(=O)O)cc43)-c3ccc(Cl)cc32)CC1 [Example 1-262, 3-chloro-13-cyclohexyl-5-[2-(1-methylpiperidin-4-yloxy)ethyl]-6,7-dihydro-5H-benzo[5,6][1,4]diazepino[7,1-a]indole-10-carboxylic acid dihydrochloride]
  pIC50: > 7.00

## CC(C)CN1CCCC(CCN2CCn3c(c(C4CCCCC4)c4ccc(C(=O)O)cc43)-c3ccc(Cl)cc32)C1 (centres unmarked) [Example 1-263, 3-chloro-13-cyclohexyl-5-[2-(1-isobutylpiperidin-3-yl)ethyl]-6,7-dihydro-5H-benzo[5,6][1,4]diazepino[7,1-a]indole-10-carboxylic acid dihydrochloride]
  pIC50: > 7.00

## O=C(O)c1ccc2c(C3CCCCC3)c3n(c2c1)CCN(CCC1CCCN(C2CCCC2)C1)c1cc(Cl)ccc1-3 (centres unmarked) [Example 1-264, 3-chloro-13-cyclohexyl-5-[2-(1-cyclopentylpiperidin-3-yl)ethyl]-6,7-dihydro-5H-benzo[5,6][1,4]diazepino[7,1-a]indole-10-carboxylic acid dihydrochloride]
  pIC50: > 7.00

## COC1CCCN(CCN2CCn3c(c(C4CCCCC4)c4ccc(C(=O)O)cc43)-c3ccc(Cl)cc32)C1 (centres unmarked) [Example 1-265, 3-chloro-13-cyclohexyl-5-[2-(3-methoxypiperidin-1-yl)ethyl]-6,7-dihydro-5H-benzo[5,6][1,4]diazepino[7,1-a]indole-10-carboxylic acid dihydrochloride]
  pIC50: > 7.00

## COC1CCCN(CCN2CCn3c(c(C4CCCCC4)c4ccc(C(=O)O)cc43)-c3ccc(C)cc32)C1 (centres unmarked) [Example 1-266, 13-cyclohexyl-5-[2-(3-methoxypiperidin-1-yl)ethyl]-3-methyl-6,7-dihydro-5H-benzo[5,6][1,4]diazepino[7,1-a]indole-10-carboxylic acid dihydrochloride]
  pIC50: > 7.00

## CCCC1CCCN(CCN2CCn3c(c(C4CCCCC4)c4ccc(C(=O)O)cc43)-c3ccc(Cl)cc32)C1 (centres unmarked) [Example 1-267, 3-chloro-13-cyclohexyl-5-[2-(3-propylpiperidin-1-yl)ethyl]-6,7-dihydro-5H-benzo[5,6][1,4]diazepino[7,1-a]indole-10-carboxylic acid dihydrochloride]
  pIC50: > 7.00

## CCCC1CCCN(CCN2CCn3c(c(C4CCCCC4)c4ccc(C(=O)O)cc43)-c3ccc(C)cc32)C1 (centres unmarked) [Example 1-268, 13-cyclohexyl-3-methyl-5-[2-(3-propylpiperidin-1-yl)ethyl]-6,7-dihydro-5H-benzo[5,6][1,4]diazepino[7,1-a]indole-10-carboxylic acid dihydrochloride]
25° C., 90 min, [5,6-3H]UTP incorporation into RNA, read-out: HCV polymerase inhibitory activity IC50
  pIC50: > 7.00

## O=C(O)c1ccc2c(C3CCCCC3)c3n(c2c1)CCN(CCCN1CCCC1)c1cc(Cl)ccc1-3 [Example 1-269, 3-chloro-13-cyclohexyl-5-[3-(pyrrolidin-1-yl)propyl]-6,7-dihydro-5H-benzo[5,6][1,4]diazepino[7,1-a]indole-10-carboxylic acid dihydrochloride]
  pIC50: > 7.00

## O=C(O)c1ccc2c(C3CCCCC3)c3n(c2c1)CCN(CCCN1CCCOCC1)c1cc(Cl)ccc1-3 [Example 1-270, 3-chloro-13-cyclohexyl-5-[3-(1,4-oxazepan-4-yl)propyl]-6,7-dihydro-5H-benzo[5,6][1,4]diazepino[7,1-a]indole-10-carboxylic acid dihydrochloride]
  pIC50: > 7.00

## COCC1CCCCN1CCN1CCn2c(c(C3CCCCC3)c3ccc(C(=O)O)cc32)-c2ccccc21 (centres unmarked) [Example 1-271, 13-cyclohexyl-5-[2-(2-methoxymethylpiperidin-1-yl)ethyl]-6,7-dihydro-5H-benzo[5,6][1,4]diazepino[7,1-a]indole-10-carboxylic acid dihydrochloride]
  pIC50: > 7.00

## CCC1CCCN(CCN2CCn3c(c(C4CCCCC4)c4ccc(C(=O)O)cc43)-c3ccc(C)cc32)C1 (centres unmarked) [Example 1-272, 13-cyclohexyl-5-[2-(3-ethylpiperidin-1-yl)ethyl]-3-methyl-6,7-dihydro-5H-benzo[5,6][1,4]diazepino[7,1-a]indole-10-carboxylic acid dihydrochloride]
  pIC50: > 7.00

## CCN1CCCC(CCN2CCn3c(c(C4CCCCC4)c4ccc(C(=O)O)cc43)-c3ccc(C)cc32)C1 (centres unmarked) [Example 1-273, 13-cyclohexyl-5-[2-(1-ethylpiperidin-3-yl)ethyl]-3-methyl-6,7-dihydro-5H-benzo[5,6][1,4]diazepino[7,1-a]indole-10-carboxylic acid dihydrochloride]
  pIC50: > 7.00

## Cc1ccc2c(c1)N(CCC1CCCN(C)C1)CCn1c-2c(C2CCCCC2)c2ccc(C(=O)O)cc21 (centres unmarked) [Example 1-274, 13-cyclohexyl-3-methyl-5-[2-(1-methylpiperidin-3-yl)ethyl]-6,7-dihydro-5H-benzo[5,6][1,4]diazepino[7,1-a]indole-10-carboxylic acid dihydrochloride]
  pIC50: > 7.00

## Cc1ccc2c(c1)N(CCC1CCCN(C(C)C)C1)CCn1c-2c(C2CCCCC2)c2ccc(C(=O)O)cc21 (centres unmarked) [Example 1-275, 13-cyclohexyl-5-[2-(1-isopropylpiperidin-3-yl)ethyl]-3-methyl-6,7-dihydro-5H-benzo[5,6][1,4]diazepino[7,1-a]indole-10-carboxylic acid dihydrochloride]
  pIC50: > 7.00

## CCOc1ccc2c(c1)N(CCN1CCCCC1)CCn1c-2c(C2CCCCC2)c2ccc(C(=O)O)cc21 [Example 1-276, 13-cyclohexyl-3-ethoxy-5-[2-(piperidin-1-yl)ethyl]-6,7-dihydro-5H-benzo[5,6][1,4]diazepino[7,1-a]indole-10-carboxylic acid dihydrochloride]
  pIC50: > 7.00

## O=C(O)c1ccc2c(C3CCCCC3)c3n(c2c1)CCN(CCN1CCCCCCC1)c1cc(Cl)ccc1-3 [Example 1-277, 5-[2-(azocan-1-yl)ethyl]-3-chloro-13-cyclohexyl-6,7-dihydro-5H-benzo[5,6][1,4]diazepino[7,1-a]indole-10-carboxylic acid dihydrochloride]
  pIC50: > 7.00

## Cc1ccc2c(c1)N(CCN1CCCCCCC1)CCn1c-2c(C2CCCCC2)c2ccc(C(=O)O)cc21 [Example 1-278, 5-[2-(azocan-1-yl)ethyl]-13-cyclohexyl-3-methyl-6,7-dihydro-5H-benzo[5,6][1,4]diazepino[7,1-a]indole-10-carboxylic acid dihydrochloride]
  pIC50: > 7.00

## CC(=O)N1CCC(N(C)CCN2CCn3c(c(C4CCCCC4)c4ccc(C(=O)O)cc43)-c3ccccc32)CC1 [Example 1-279, 5-{2-[N-(1-acetylpiperidin-4-yl)-N-methylamino]ethyl}-13-cyclohexyl-6,7-dihydro-5H-benzo[5,6][1,4]diazepino[7,1-a]indole-10-carboxylic acid monohydrochloride]
  pIC50: > 7.00

## CN(CCN1CCn2c(c(C3CCCCC3)c3ccc(C(=O)O)cc32)-c2ccccc21)C1CCN(S(C)(=O)=O)CC1 [Example 1-280, 13-cyclohexyl-5-{2-[N-(1-methanesulfonylpiperidin-4-yl)-N-methylamino]ethyl}-6,7-dihydro-5H-benzo[5,6][1,4]diazepino[7,1-a]indole-10-carboxylic acid]
  pIC50: > 7.00
